Here are results for 1 compound from patent US12187759B2, “TLR7 agonists” (Primmune Therapeutics, Inc., priority 2019, dated 2025).

The subject of test [1] is hPBMCs (Human Peripheral Blood Mononuclear Cells). Put plainly: Induction of interferon-α in hPBMCs in vitro. In kind it is cell-based. Summed up:
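Peripheral blood mononuclear cells from healthy human donors were dispensed into replicate culture wells at 1.0-7.5×10^6 cells per well. They were exposed to test compound for 24 hours at 37° C. in humidified 5% CO2, with untreated wells as controls. Secreted interferon-α was quantified with a multisubtype ELISA or as IFNα2a in a luminex panel. MEC was defined as the lowest concentration giving a significant rise above baseline, generally at least 80 pg/ml. IFNmax was the highest IFN level seen at any tested concentration.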

For another test, the target named is T1, human TLR7 (Homo sapiens, UniProt Q9NYK1).
T1 construct: host or cells: HEK293
T1 sequence (Q9NYK1 27-1049): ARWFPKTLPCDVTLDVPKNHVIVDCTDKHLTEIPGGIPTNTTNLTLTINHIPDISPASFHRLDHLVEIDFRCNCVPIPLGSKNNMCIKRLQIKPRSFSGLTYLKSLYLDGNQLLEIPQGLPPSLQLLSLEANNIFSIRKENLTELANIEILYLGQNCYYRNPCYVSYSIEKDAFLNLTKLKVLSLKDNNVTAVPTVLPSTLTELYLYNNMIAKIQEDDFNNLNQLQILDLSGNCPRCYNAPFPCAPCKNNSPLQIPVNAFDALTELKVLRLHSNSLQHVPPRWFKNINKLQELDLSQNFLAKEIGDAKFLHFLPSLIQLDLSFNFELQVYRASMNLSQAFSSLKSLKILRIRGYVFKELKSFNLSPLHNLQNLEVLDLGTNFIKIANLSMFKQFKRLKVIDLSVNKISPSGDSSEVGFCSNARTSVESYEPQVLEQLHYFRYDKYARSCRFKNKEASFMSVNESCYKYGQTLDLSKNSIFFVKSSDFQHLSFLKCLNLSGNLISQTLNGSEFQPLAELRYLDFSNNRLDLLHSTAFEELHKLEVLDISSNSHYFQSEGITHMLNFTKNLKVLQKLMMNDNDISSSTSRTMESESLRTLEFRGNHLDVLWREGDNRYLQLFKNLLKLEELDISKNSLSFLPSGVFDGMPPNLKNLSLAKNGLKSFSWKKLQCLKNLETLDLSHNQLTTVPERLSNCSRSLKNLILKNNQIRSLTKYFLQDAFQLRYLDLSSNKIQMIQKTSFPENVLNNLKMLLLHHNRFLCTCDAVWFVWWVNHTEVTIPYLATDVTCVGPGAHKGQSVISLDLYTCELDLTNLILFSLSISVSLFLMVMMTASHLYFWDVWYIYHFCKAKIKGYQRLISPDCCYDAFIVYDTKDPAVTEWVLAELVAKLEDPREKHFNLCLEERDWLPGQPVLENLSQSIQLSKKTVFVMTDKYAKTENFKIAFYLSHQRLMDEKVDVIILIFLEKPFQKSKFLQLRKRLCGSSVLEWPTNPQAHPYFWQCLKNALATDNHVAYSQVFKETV
Put plainly: TLR7 reporter cell assay (HEK293 cells stably expressing human TLR7 with NF-κB-driven SEAP reporter). Format: cell-based. The settings on record: 15-24 hours. Summed up: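 HEK293 cells stably expressing human TLR7 with an NF-κB-driven SEAP reporter, treated with compound for 15-24 hours. SEAP read at OD 650 nm. EC50 fitted by nonlinear least squares, maximum set by 28.5 μM resiquimod.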

Structures are written as SMILES. pEC50: −log10 of the molar value.

Turning to `CC[C@H](O)[C@@H]1C[C@@H](O)[C@H](n2c(=O)sc3c(=O)[nH]c(N)nc32)O1` [Compound A, 5-amino-3-((2R,3R,5S)-3-hydroxy-5-((S)-1-hydroxypropyl)tetrahydrofuran-2-yl)thiazolo[4,5-d]pyrimidine-2,7(3H,6H)-dione, reference compound], the “Donor 1 MEC” value in test [1] (Donor 1, interferon-α production) is at most 3.125 µM. Further, the “Donor 1 IFNmax” value in test [1] (Donor 1, maximum IFN at any concentration of the evaluated range) worked out at 1061 pg/mL. Moreover, in test [1] (Donor 2, interferon-α production), the “Donor 2 MEC” value was at most 3.125 µM. For the same compound, the “Donor 2 IFNmax” value in test [1] (Donor 2, maximum IFN at any concentration of the evaluated range) came to 481 pg/mL. Further, the “Donor 3 MEC” value in test [1] (Donor 3, interferon-α production) is at most 3.125 µM. Also, in test [1] (Donor 3, maximum IFN at any concentration of the evaluated range), the “Donor 3 IFNmax” value was found to be 2243 pg/mL. The Emax in test [1] (Homo sapiens, PBMC, 24 h, peak IFNα2a as percentage of peak response of standard 2-Amino-7-(cyclopropylmethyl)-9-B-D-xylofuranosyl-7,9-dihydro-1H-purine-6,8-dione, averaged across donors, read-out: IFNrmax, Relative Maximal IFNα2a Production (%)) turned out to be 103%. Besides, the minimal effective concentration in test [1] (Homo sapiens, PBMC, minimal effective concentration for interferon-α production (generally at least 80 pg/ml above baseline), geometric mean across at least three donors, 24 hours, read-out: Weighted MEC) is at most 3.1 µM. Moreover, at human TLR7 (HEK293, 500 μM compound, SEAP activity (OD 650 nm) relative to 28.5 μM resiquimod, read-out: Response at 500 μM Compound as a Percent of Resiquimod Response), the Emax at 500 µM was found to be 74%. In addition, the pEC50 (commonly the EC50 on a negative log10 scale, so that one unit is a factor of ten) on human TLR7 (fit of SEAP dose response, ymax from 28.5 μM resiquimod) is 4.29.
